Where a name gives a salt, the structure may show the parent alone.
Columns and labels:
Aurora 2 = target: T1, Aurora 2 (Homo sapiens, UniProt O14965); test: Aurora 2 kinase radioactivity scintillation test; type: biochemical
T1 construct: A complete recombinant Aurora 2 enzyme, the N-terminal end of which was labeled with histidine; His tag (N); made in house; host or cells: E. coli
T1 sequence (O14965 1-403): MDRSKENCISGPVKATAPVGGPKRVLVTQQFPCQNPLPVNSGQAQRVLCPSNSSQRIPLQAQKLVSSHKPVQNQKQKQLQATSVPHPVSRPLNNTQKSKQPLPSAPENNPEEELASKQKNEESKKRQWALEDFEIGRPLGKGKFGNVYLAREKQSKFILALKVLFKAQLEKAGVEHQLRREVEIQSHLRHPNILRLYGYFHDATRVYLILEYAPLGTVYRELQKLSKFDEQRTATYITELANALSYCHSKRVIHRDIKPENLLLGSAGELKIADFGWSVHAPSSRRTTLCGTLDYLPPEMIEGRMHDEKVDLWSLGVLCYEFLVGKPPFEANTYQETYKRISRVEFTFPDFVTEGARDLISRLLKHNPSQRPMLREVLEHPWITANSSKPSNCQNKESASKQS
Procedure: The inhibitory effect of the compounds toward the kinase Aurora 2 is determined via a radioactivity scintillation test.
A complete recombinant Aurora 2 enzyme, the N-terminal end of which was labeled with histidine, was expressed in E. coli and purified to a quality close to homogeneity.
The C-terminal fragment (Q1687-H2101) of an NuMA (nuclear protein which is associated with the Mitotic Apparatus) expressed in E. coli, and the N-terminal end of which was labeled with histidine, was purified by chromatography with nickel chelate and used as substrate in the Aurora 2 kinase test.
The kinase activity of Aurora 2 is measured by scintillation on a microplate saturated with nickel chelate (New England Nuclear, SMP107 model). Each well contains 100 μl of the following solution: 0.02 μM of Aurora 2; 0.5 μM of NuMA substrate; 1 μM of ATP supplemented with 0.5 μCi of ATP-[^33P]. The solutions are incubated for 45 minutes at 37° C. The test buffer is then removed and the wells are rinsed twice with 300 μl of kinase buffer. The radioactivity is measured in each well using a Packard Model Top Count NXT machine.
The background noise is measured in duplicate in wells containing the radioactive ATP alone containing buffered kinase treated in the same manner as for the other samples.
The activity of the control is determined by measuring in duplicate the radioactivity in the complete test mixture (ATP, Aurora 2 and NuMA substrate), in the absence of test compound.
The inhibition of the activity of Aurora 2 with a compound of the invention is expressed as a percentage of inhibition of the control activity in the absence of test compound. Staurosporin is added to each plate as inhibition control.

CDK4/cyclin D1 = CDK4/cyclin D1 (Homo sapiens, UniProt P11802); test: CDK4/cyclin D1 Flashplate test in 96-well format; type: biochemical
Chain of CDK4/cyclin D1 (P11802 whole entry): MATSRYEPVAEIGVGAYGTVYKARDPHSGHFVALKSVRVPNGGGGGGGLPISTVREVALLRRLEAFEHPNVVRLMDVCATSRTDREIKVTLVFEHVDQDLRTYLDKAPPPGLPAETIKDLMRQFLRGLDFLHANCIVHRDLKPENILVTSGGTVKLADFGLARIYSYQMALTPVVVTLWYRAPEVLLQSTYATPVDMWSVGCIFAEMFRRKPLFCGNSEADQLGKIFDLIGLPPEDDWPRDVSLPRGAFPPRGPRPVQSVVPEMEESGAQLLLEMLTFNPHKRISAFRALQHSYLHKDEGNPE
Chain of CDK4/cyclin D1 (P24385 whole entry partner): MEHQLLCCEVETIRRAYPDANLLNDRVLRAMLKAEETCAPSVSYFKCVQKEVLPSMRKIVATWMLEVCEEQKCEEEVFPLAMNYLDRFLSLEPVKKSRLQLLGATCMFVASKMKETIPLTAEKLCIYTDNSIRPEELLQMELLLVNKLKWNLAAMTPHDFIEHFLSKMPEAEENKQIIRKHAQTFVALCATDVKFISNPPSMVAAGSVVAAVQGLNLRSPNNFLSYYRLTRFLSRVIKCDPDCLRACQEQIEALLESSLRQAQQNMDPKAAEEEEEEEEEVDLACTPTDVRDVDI
Procedure: 2. CDK4/cyclin D1 Protocol:
Purification of the CDK4-HA/cyclin D1-(His)6 Complex by IMAC (Immobilized Metal Affinity Chromatography):
Two recombinant baculoviruses bearing the human sequences coding, respectively, for CDK4-HA (C-terminal fusion with the hemaglutinin tag) and for cyclin D1-(His)6 are used to coinfect insect Sf9 cells. Sixty hours after the start of the coinfection, the cells are harvested by centrifugation and then frozen at −20° C. until the time of use.
CDK4/cyclin D1 Flashplate Test in 96-Well Format
A test in 96-well “Flashplate” plates coated with streptavidin is used to evaluate the inhibition of the CDK4/cyclin D1 kinase complex by the products of the invention. To perform this test, the biotinylated peptide substrate, a fragment of the pRb protein (biotinyl-[…]-amide) is dissolved at a concentration of 2 mM in kinase buffer (HEPES/NaOH 50 mM, NaCl 1 mM, MgCl2 5 mM, pH 7.5) in order to constitute a stock solution stored at −20° C. in the form of 110 μl aliquots. On the day of the experiment, an aliquot of this solution is thawed and diluted in kinase buffer containing 1 mM of dithiothreitol, and added to the buffer extemporaneously, in order to obtain a final peptide concentration of 2.571 μM. 70 μl of this solution are added to each well of the Flashplate in order to obtain a final substrate concentration of 1.8 μM during the enzymatic reaction, performed in a final volume of the reaction medium of 100 μl (cf. below). Intermediate dilutions of inhibitors (products of the invention) at various concentrations are prepared in DMSO from stock solutions at 10 mM in separate tubes. 1000 μM, 333.3 μM, 111.1 μM, 37.03 μM, 12.35 μM, 4.11 μM and 1.37 μM dilutions are thus prepared. 1 μl of each of these solutions (or 1 μl of DMSO for the controls) is then transferred into the wells of the test plate. Into each well are then added 19 μl of a solution of a mixture of adenosine triphosphate (ATP) and of ATPy^33P in the kinase buffer at a concentration of 5.26 μM of ATP total and 78.9 μCi/ml of ^33P. The enzymatic reaction is triggered by addition of 10 μl per well of a solution of CDK4/cyclin D1 at 250 nM in the kinase buffer containing 1 mM of dithiothreitol (or 10 μl of kinase buffer containing 1 mM of dithiothreitol for the reaction blanks).
(§1) After addition of all the reagents, the test plate is incubated at 30° C. with orbital stirring at 650 rpm. After the incubation, the plate is washed three times with 300 μl per well of PBS (phosphate-buffered saline, pH=7.4, without calcium or magnesium, reference 10010-015, Gibco BRL). The incorporation of ^33P into the substrate peptide is quantified by scintillation counting using a Packard Topcount.NXT machine. The inhibitory activity of the products of the invention is evaluated by measuring the inhibitory concentration that allows a 50% reduction in the enzymatic activity (IC50).

CDK2/cyclin E = CDK2/cyclin E (Homo sapiens, UniProt P24941); test: CDK2/cyclin E Flashplate test in 96-well format; type: biochemical; conditions: read-out: CDK2 IC50
Procedure: 1. Protocol CDK2/cyclin E:
Purification of the CDK2/cyclin E-(His)6 Complex by IMAC (Immobilized Metal Affinity Chromatography):
Two recombinant baculoviruses bearing the human sequences coding, respectively, for CDK2 and cyclin E (the latter comprising a C-terminal hexahistidine tag) are used to coinfect insect Sf21 cells. Two to three days after the start of coinfection, the cells are harvested by centrifugation and then stored at −40° C. until the time of use. After thawing and mechanical lysis of the cells, the complex present in the lysis supernatant is purified by affinity chromatography on nickel (IMAC), and stored at −80° C.
CDK2/cyclin E Flashplate Test in 96-Well Format
A format in 96-well plates coated with streptavidin is used to test the activity of the compounds on the kinase activity of CDK2/cyclin E.
To perform this test, the biotinylated peptide substrate, a fragment of the pRb protein (biotinyl-[…]-OH) is dissolved at a concentration of 1 mM in kinase buffer (HEPES/NaOH 50 mM, NaCl 1 mM, MgCl2 5 mM, pH 7.5) in order to constitute a stock solution stored at −20° C. in the form of 110 μl aliquots. On the day of the experiment, an aliquot of this solution is thawed and diluted in kinase buffer containing 1 mM of dithiothreitol, and added to the buffer extemporaneously, in order to obtain a concentration of 14.3 μM. 70 μl of this solution are added to each well of the Flashplate in order to obtain a final substrate concentration of 10 μM during the enzymatic reaction, performed in a final volume of the reaction medium of 100 μl (cf. below).
Intermediate dilutions of inhibitors (products of the invention) at various concentrations are prepared in DMSO from stock solutions at 10 mM in separate tubes. 1000 μM, 333.3 μM, 111.1 μM, 37.03 μM, 12.35 μM, 4.11 μM and 1.37 μM dilutions are thus prepared. 1 μl of each of these solutions (or 1 μl of DMSO for the controls) is transferred into the wells of the test plate.
Into each well are then added 19 μl of a solution of a mixture of adenosine triphosphate (ATP) and of ATPy^33P in the kinase buffer at a concentration of 5.26 μM of ATP total and 52.6 μCi/ml of ^33P. The enzymatic reaction is triggered by addition of 10 μl per well of a solution of CDK2/cyclin E at 200 nM in the kinase buffer containing 1 mM of dithiothreitol (or 10 μl of kinase buffer containing 1 mM of dithiothreitol for the reaction blanks).
After addition of all the reagents, the plate is incubated at 30° C. with orbital stirring at 650 rpm.
as §1, with “When” for “After addition of all”, “incubation” for “reagents, the test plate”, “complete,” for “incubated at 30° C. with orbital stirring at 650 rpm. After the incubation,”, “the” for “the substrate”

HeLa = HeLa proliferation; type: cell-based; conditions: Homo sapiens, read-out: HeLa proliferation EC50 (nM) DG

CCN(CC)CCC(=O)Nc1nc2ccc(OS(=O)(=O)c3cccs3)cc2s1 [Example 33g, Thiophene-2-sulfonic acid 2-(3-diethyl-aminopropionylamino)benzothiazol-6-yl ester; compound with trifluoroacetic acid] was tested, and the IC50 (Aurora 2) was 1900 nM, the IC50 (CDK4/cyclin D1) was over 10000 nM and the IC50 (CDK2/cyclin E) was 5000 nM.
For CC(C)N(CCNc1ccc(S(=O)(=O)Oc2ccc3nc(NC(=O)CCCCCCN)sc3c2)cc1)C(C)C [Example 52, 4-(2-diisopropylaminoethylamino)benzenesulfonic acid 2-(7-aminoheptanoylamino)benzothiazol-6-yl ester hydrochloride], the IC50 (CDK4/cyclin D1) was 189 nM, the IC50 (CDK2/cyclin E) was 112 nM and the EC50 (HeLa) was 2950 nM.
With O=C(Nc1nc2ccc(OS(=O)(=O)c3ccc(NCCCCn4cnc(-c5cccnc5)c4)cc3)cc2s1)C1CC1 [Example 13, 4-[4-(4-pyrid-3-ylimidazol-1-yl)butylamino]-benzenesulfonic 2-(cyclopropanecarbonylamino)benzothiazol-6-yl ester] the IC50 (CDK4/cyclin D1) was 6860 nM, the IC50 (CDK2/cyclin E) was 678 nM and the EC50 (HeLa) was 841 nM.
Work on O=C(CCC1CCNCC1)Nc1nc2ccc(OS(=O)(=O)c3ccc(NCCCn4ccnc4)cc3)cc2s1 [Example 25a, 4-(3-Imidazol-1-ylpropyl-amino)benzenesulfonic acid 2-(3-piperid-4-ylpropionyl-amino)benzothiazol-6-yl ester hydrochloride] yielded an IC50 (CDK4/cyclin D1) of 1700 nM, an IC50 (CDK2/cyclin E) of 365 nM and an EC50 (HeLa) of over 12500 nM.
With CC(C)NCCNc1ccc(S(=O)(=O)Oc2ccc3nc(NC(=O)CCCCCCCN)sc3c2)cc1 [Example 21, 4-(2-isopropylaminoethylamino)benzenesulfonic acid 2-(8-aminooctanoylamino)benzothiazol-6-yl ester hydrochloride] the IC50 (CDK4/cyclin D1) was 539 nM, the IC50 (CDK2/cyclin E) was 227 nM and the EC50 (HeLa) was 2460 nM.
With COCC(=O)Nc1nc2ccc(OS(=O)(=O)c3ccc(NCCNC(C)C)cc3)cc2s1 [Example 67, 4-(2-isopropylaminoethylamino)benzenesulfonic acid 2-(2-methoxyacetylamino)benzothiazol-6-yl ester] the IC50 (CDK4/cyclin D1) was 1220 nM, the IC50 (CDK2/cyclin E) was 294 nM and the EC50 (HeLa) was over 12500 nM.
With CC(C)NCCNc1ccc(S(=O)(=O)Oc2ccc3nc(NC(=O)C4CCC4)sc3c2)cc1 [Example 77, 4-(2-isopropylaminoethylamino)benzenesulfonic acid (2-cyclobutanecarbonylamino)benzothiazol-6-yl ester; compound with trifluoroacetic acid] the IC50 (CDK4/cyclin D1) was 1010 nM, the IC50 (CDK2/cyclin E) was 419 nM and the EC50 (HeLa) was 179 nM.
For CC(C)CNc1ccc(S(=O)(=O)Oc2ccc3nc(NC(=O)CCC4CCNCC4)sc3c2)cc1 [Example 29a, 4-Isobutylaminobenzenesulfonic acid 2-(3-piperid-4-ylpropionyl-amino)benzothiazol-6-yl ester hydrochloride], the IC50 (CDK4/cyclin D1) was 573 nM, the IC50 (CDK2/cyclin E) was 257 nM and the EC50 (HeLa) was 1830 nM.
Compound CC(C)CNc1ccc(S(=O)(=O)Oc2ccc3nc(NC(=O)CCCCCCCN)sc3c2)cc1 [Example 29b, 4-Isobutylaminobenzenesulfonic acid 2-(8-aminooctanoylamino)-benzothiazol-6-yl ester hydro-chloride] has an IC50 (CDK4/cyclin D1) of 368 nM, an IC50 (CDK2/cyclin E) of 161 nM and an EC50 (HeLa) of 8960 nM.
Compound CCNCCNc1ccc(S(=O)(=O)Oc2ccc3nc(NC(=O)CCC4CCNCC4)sc3c2)cc1 [Example 25b, 4-(2-Ethylaminoethyl-amino)-benzenesulfonic acid 2-(3-piperid-4-yl-propionyl-amino)-benzo-thiazol-6-yl ester hydrochloride] has an IC50 (CDK4/cyclin D1) of 4080 nM, an IC50 (CDK2/cyclin E) of 5870 nM and an EC50 (HeLa) of 9960 nM.
In the case of CCCC(=O)Nc1nc2ccc(OS(=O)(=O)c3ccc(NCC(C)(C)O)cc3)cc2s1 [Example 80, 4-(2-hydroxy-2-methylpropylamino)benzene-sulfonic acid 2-butyrylaminobenzothiazol-6-yl ester hydrochloride], the IC50 (CDK4/cyclin D1) is reported as 674 nM, the IC50 (CDK2/cyclin E) is reported as 57 nM and the EC50 (HeLa) is reported as 408 nM.

From US7632952B2, “Benzothiazoles and the use thereof as medicaments” (Aventis Pharma S.A., priority 2004, dated 2009)
